pIC50: −log10 of the molar value. Inconclusive results are not listed. Activity calls are given as the source filed them. How the calls were made is not given here.
These compounds were tested on Mycobacterium tuberculosis non-replicating, growth inhibition (assay: growth inhibition of non-replicating M. tuberculosis (AID 488890)).

Structure (SMILES)	pIC50	IC50
CC1=NN(C(=O)c2ccccc2F)C(O)(c2ccc(Cl)cc2)C1 (centres undefined)	6.30	–
COc1ccc(C(=O)COC(=O)CCC(=O)c2cccs2)cc1	–	34.2 µM (inactive)
O=Cc1ccc(-c2ccc(Cl)cc2Cl)[nH]1	–	17.3 µM (inactive)
CCSc1nc(O)c(C2OC(=O)c3c2ccc(OC)c3OC)c(=O)n1-c1ccccc1 (centres undefined)	–	13.3 µM (inactive)
O=C1c2ccccc2-n2c1nc1ccccc1c2=O	5.55	–
CC1(C)Oc2ccc(NC(=O)C3COc4ccccc4O3)cc2O1 (centres undefined)	–	12.9 µM (inactive)
O=C(CCNc1cccc(Cl)c1)c1ccco1	5.27	–
CCCCCn1c(=O)c2ccccc2n2c(CCl)nnc12	6.14	–
CC(C)(C)NC(=O)c1ccc(NC(=O)c2ccccc2-c2ccccc2C(=O)O)cc1	5.43	–
COc1ccc(-c2noc(CCC(=O)Nc3cccc(C)c3)n2)cc1	–	11.5 µM (inactive)
O=C(NCc1cccs1)c1cc(-c2ccc(O)cc2)on1	–	23.3 µM (inactive)
CCOC(=O)c1cc(-c2csc(COc3ccc(Cl)cc3)n2)on1	6.89	–
O=C(Nc1nccs1)c1ccc(COc2ccc(Cl)cc2)o1	–	10.4 µM (inactive)
CNc1nc(-c2ccccn2)nnc1-c1ccccc1	–	16.2 µM (inactive)
O=[N+]([O-])c1c(Nc2ccccn2)cc(Cl)c2nonc12	> 7.00	–
CCCc1ccc(OCc2ccc(C(=O)N/N=C/c3cccnc3)o2)cc1	5.07	–
Cc1cc(C(=O)N/N=C/c2ccc([N+](=O)[O-])s2)n[nH]1	5.48	–
C/C(=N/NC(=O)c1ccncc1)C1=C(O)CC(C)(C)CC1=O	–	13 µM (inactive)
CCCCc1ccc(NS(=O)(=O)c2c(C)n(C)c(=O)n(C)c2=O)cc1	–	27.1 µM (inactive)
O=C(N/N=C\c1ccc(Cl)s1)C1COc2ccccc2O1 (centres undefined)	6.01	–
CCOC(=O)c1ccsc1NC(=O)CCS(=O)(=O)c1ccccc1	–	33.8 µM (inactive)
CCS(=O)(=O)c1c([N+](=O)[O-])ncn1C	–	19.5 µM (inactive)
Cc1ccccc1C(=O)NNc1ccc([N+](=O)[O-])cc1	–	20.4 µM (inactive)
Cc1n[nH]c(=S)n1/N=C/c1ccc(OCc2ccc(Cl)cc2Cl)cc1	–	37.5 µM (inactive)
CSc1ccc(CNc2ncc(-c3cccc([N+](=O)[O-])c3)n2C)cc1	–	21.1 µM (inactive)
CCOC(=O)c1c(NC(=O)C2COc3ccccc3O2)sc2c1CC(C)(C)NC2(C)C (centres undefined)	–	18.3 µM (inactive)
CC1=NN(C(=O)c2ccc(Cn3nc(C)c(Br)c3C)cc2)C(O)(C(F)(F)F)C1 (centres undefined)	6.24	–

Structure (SMILES)	pIC50	IC50
CCC(C)NCCOc1ccc(C(C)(C)c2ccccc2)cc1 (centres undefined)	–	10.4 µM (inactive)
COC(=O)CCS(=O)(=O)c1nc(-c2ccccc2)cc(C(F)(F)F)n1	5.65	–
CC(C)N1C(=O)NC(=O)C2(Cc3cc([N+](=O)[O-])ccc3N(C)C2c2ccccc2)C1=O (centres undefined)	–	14.7 µM (inactive)
CC(=O)N1CCN(C(=O)CC2OC(=O)c3ccccc32)CC1 (centres undefined)	–	18.9 µM (inactive)
O=C(NNc1ccc([N+](=O)[O-])cc1)C1CC1c1ccccc1 (centres undefined)	5.05	–
CN(C)/C=C1/C(=O)N(c2ccc([N+](=O)[O-])cc2)N=C1c1ccccc1	–	17.7 µM (inactive)
O=C(OCC#CCSc1nnc(-c2ccncc2)o1)c1cccs1	5.38	–
O=C(Cc1c(F)cccc1Cl)Nc1ncc([N+](=O)[O-])s1	–	12.1 µM (inactive)
COc1cccc(NC(=O)c2ccc(C(=O)c3ccccc3)o2)c1	5.47	–
Cc1ccc(NC(=O)COc2ccccc2)cc1Cl	5.00	–
CC(Oc1ccc(Cl)cc1)C(=O)NNC(=S)NC(=O)c1ccco1 (centres undefined)	–	22.3 µM (inactive)
N=c1n(CCN2CCCCC2)c2ccccc2n1CC(=O)c1ccc(Cl)c(Cl)c1	–	21.5 µM (inactive)
C/C(=N\Nc1cccc2cccnc12)c1ccccn1	–	32.7 µM (inactive)
CCOC(=O)C(C)Oc1cc(Cl)c(C=O)cc1OC (centres undefined)	5.09	–
CCOc1ccc(-c2nnc(NC(=O)c3ccc(OCC(C)C)c(OC)c3)o2)cc1	–	24.1 µM (inactive)
Cc1ccccc1NC(=O)c1nc[nH]c1C(=O)NCc1ccccc1	–	23.7 µM (inactive)
COc1cc(/C=C2/C(=O)NN(c3cccc(F)c3)C2=O)ccc1OC(=O)c1ccco1	5.30	–
Cc1ccc(Sc2ccc(/C=C3/C(=O)NN(c4ccccc4)C3=O)o2)cc1	5.37	–
CN1C/C(=C/c2cccnc2)C(=O)/C(=C/c2cccnc2)C1	–	23.5 µM (inactive)
CC(=O)N1N=C(c2ccccc2)OC1c1ccc([N+](=O)[O-])s1 (centres undefined)	–	13.4 µM (inactive)
O=C(N/N=C\c1ccc([N+](=O)[O-])s1)C1COc2ccccc2O1 (centres undefined)	5.31	–
COc1ccc(-c2cc(C(F)(F)F)nc(S(C)(=O)=O)n2)cc1	5.54	–
CC(=O)c1ccc(OCC(=O)Nc2ccc3c(c2)CCC3)cc1	–	12.4 µM (inactive)
Cc1cccc(NC(=O)c2cc3ccccc3o2)c1	5.49	–
CC1CCN(C(=O)COC(=O)c2cc3ccccc3cc2O)CC1	5.69	–
O=C(NNC(=O)C12CC3CC(CC(C3)C1)C2)c1ccccn1	5.17	–
Oc1ccc2cc(Br)ccc2c1CN1CCCC1	5.14	–

Structure (SMILES)	pIC50	IC50
CCCCCCn1c(=O)c(C(=O)Nc2cnccn2)c(O)c2ccccc21	5.62	–
COC(=O)c1ccc(CSc2nnc(-c3ccncc3)o2)o1	5.14	–
Cc1ccc(NC(=O)CNc2ccc(OC(C)C)cc2)cc1	5.39	–
O=C(c1cc(F)ccc1F)C1CCCN(Cc2ccc3nonc3c2)C1 (centres undefined)	–	12.7 µM (inactive)
O=C(c1ccccc1)C(CN1CCCC1)c1ccccc1 (centres undefined)	5.26	–
COc1cc(C(=O)CCN2CCC(c3ccccc3)C2)cc(OC)c1OC (centres undefined)	5.19	–
O=C(NNC(=O)c1ccccn1)c1cccc([N+](=O)[O-])c1	–	11 µM (inactive)
COC(=O)[C@H](CC(C)C)NC(=O)NCCC1=CCCCC1	–	12.8 µM (inactive)
CCCC(=O)N1CCC(Cc2ccccc2)CC1	5.46	–
COc1ccc(C(=O)C(CN2CCCC2)c2ccccc2)cc1 (centres undefined)	5.25	–
COc1cccc(/C=C2\SC(=S)N(CCC(=O)N3CCCCC3)C2=O)c1	5.04	–
Cc1cccc(OCCN2CSC(=S)N(C)C2)c1	–	16.4 µM (inactive)
O=C(COC(=O)c1ccc(Br)o1)NCCCc1ccccc1	5.19	–
CC1(c2nnc(-c3ccc(F)cc3)o2)CC(c2cccc(Cl)c2)=NO1 (centres undefined)	5.54	–
O=C(Nc1ccccn1)c1ccc(C(=O)c2ccccc2)cc1	–	18.4 µM (inactive)
CC1(C(=O)OCC(=O)Nc2nnc(-c3ccccc3)o2)CC1(Cl)Cl (centres undefined)	5.50	–
COc1cccc(N2C(=O)NC(=O)/C(=C/c3ccc([N+](=O)[O-])s3)C2=O)c1	–	17.1 µM (inactive)
CCn1nnc(NC(=O)c2sc3ccccc3c2Cl)n1	–	28.5 µM (inactive)
CSc1ccc(C(=O)C2CCCN(C(=O)c3ccc4c(c3)no[n+]4[O-])C2)cc1 (centres undefined)	5.39	–
O=C(c1cccs1)N1CCN(c2ccc(Cl)cc2)CC1	–	27.2 µM (inactive)
O=C(OCC(=O)N1CCc2ccccc2C1)c1cccc([N+](=O)[O-])c1	5.02	–
CC(C)COc1ccc(C(=O)CCN2CCCCC2)cc1	5.01	–
Cn1c(=O)[nH]c(=O)c2c1nc([N+](=O)[O-])n2Cc1ccccc1	5.34	–
CN1CCC(O)(c2ccc(Cl)cc2)C(C(=O)c2ccc(Cl)cc2)C1 (centres undefined)	5.71	–
OC(COc1ccccc1Cl)CN1CCN(CC(O)COc2ccccc2Cl)CC1 (centres undefined)	–	19 µM (inactive)

— PubChem BioAssay AID488890 (Southern Research Specialized Biocontainment Screening …, 2010)
